Reference: patent US20230167073A1 (Teijin Pharma Limited, priority 2020, published 2023)

target: T1, Human TRPC6 (Homo sapiens, UniProt Q9Y210); assay: Evaluation of TRPC6 channel inhibitory activity (1), FLIPR Calcium 5 Assay Kit, OAG stimulation (Compound Nos. 1-1293); type: cell-based; settings: Human TRPC6 stably-expressing cells, OAG 30 μM, FLIPR Calcium 5 Assay Kit; read-out: Inhibitory activity (pIC50 class) (converted)
T1 construct: expressed in transfected cells
T1 sequence (Q9Y210 1-931): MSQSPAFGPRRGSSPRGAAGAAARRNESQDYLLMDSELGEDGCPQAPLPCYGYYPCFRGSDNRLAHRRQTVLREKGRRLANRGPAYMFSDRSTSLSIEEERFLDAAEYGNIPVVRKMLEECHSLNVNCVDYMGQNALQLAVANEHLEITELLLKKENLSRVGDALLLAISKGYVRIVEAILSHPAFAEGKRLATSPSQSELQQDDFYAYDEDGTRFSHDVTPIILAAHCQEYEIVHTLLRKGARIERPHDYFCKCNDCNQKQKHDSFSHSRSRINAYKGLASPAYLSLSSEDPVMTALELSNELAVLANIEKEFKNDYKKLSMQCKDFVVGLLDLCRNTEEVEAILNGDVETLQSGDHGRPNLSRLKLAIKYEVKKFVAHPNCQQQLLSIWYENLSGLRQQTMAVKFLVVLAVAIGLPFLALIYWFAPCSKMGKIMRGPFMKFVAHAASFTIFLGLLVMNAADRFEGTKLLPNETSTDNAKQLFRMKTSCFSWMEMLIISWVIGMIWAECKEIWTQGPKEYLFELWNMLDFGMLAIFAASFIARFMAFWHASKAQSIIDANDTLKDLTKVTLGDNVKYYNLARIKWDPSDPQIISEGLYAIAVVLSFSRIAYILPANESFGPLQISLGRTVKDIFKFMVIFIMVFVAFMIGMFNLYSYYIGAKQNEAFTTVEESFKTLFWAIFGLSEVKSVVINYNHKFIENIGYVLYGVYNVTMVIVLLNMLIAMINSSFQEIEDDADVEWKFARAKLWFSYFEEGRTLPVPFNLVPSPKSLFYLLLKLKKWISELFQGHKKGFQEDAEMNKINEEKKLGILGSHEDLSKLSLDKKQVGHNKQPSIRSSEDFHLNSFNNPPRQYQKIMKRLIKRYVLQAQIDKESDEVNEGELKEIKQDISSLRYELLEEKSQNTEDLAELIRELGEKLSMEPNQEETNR
Outline: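 The FLIPR signal is maximum fluorescence after 30 μM OAG minus minimum before compound, measured in a human TRPC6 stable line loaded with Calcium 5 dye. Compounds were preincubated 20 min. pIC50 came from four-parameter logistic fitting of inhibition rates and is given as symbol ranges.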

Row | Structure (SMILES) | IC50 [µM]
1 | Cc1nc(NC(C)(C)C)cc(Oc2cc(C#N)ccc2-c2ncc(CN)cn2)n1 [compound 637, 4-[5-(aminomethyl)pyrimidin-2-yl]-3-[6-(tert-butylamino)-2-methylpyrimidin-4-yl]oxybenzonitrile] | < 0.01
2 | Cn1nc(-c2ccccn2)cc1Oc1cc(C#N)ccc1-c1cc(CN)ccn1 [compound 642, 4-[4-(aminomethyl)pyridin-2-yl]-3-(2-methyl-5-pyridin-2-ylpyrazol-3-yl)oxybenzonitrile] | < 0.01
3 | CCNc1cc(Oc2cc(C#N)ccc2-c2ncc(CN)cn2)cc(C)n1 [compound 643, 4-[5-(aminomethyl)pyrimidin-2-yl]-3-[2-(ethylamino)-6-methylpyridin-4-yl]oxybenzonitrile] | 0.01 to 1
4 | Cc1cc(Oc2cc(C#N)ccc2-c2ncc(CN)cn2)cc(NC(C)C)n1 [compound 644, 4-[5-(aminomethyl)pyrimidin-2-yl]-3-[2-methyl-6-(propan-2-ylamino)pyridin-4-yl]oxybenzonitrile] | < 0.01
5 | Cc1cc(Oc2cc(C#N)ccc2-c2ccc(CN)cn2)cc(NC2CC2)n1 [compound 645, 4-[5-(aminomethyl)pyridin-2-yl]-3-[2-(cyclopropylamino)-6-methylpyridin-4-yl]oxybenzonitrile] | 0.01 to 1
6 | Cc1cc(Oc2cc(C#N)ccc2-c2ccc(CN)cn2)cc(NC2CCOCC2)n1 [compound 647, 4-[5-(aminomethyl)pyridin-2-yl]-3-[2-methyl-6-(oxan-4-ylamino)pyridin-4-yl]oxybenzonitrile] | > 1
7 | Cc1cc(Oc2cc(C#N)ccc2-c2ncc(CN)cn2)cc(NC2CCOCC2)n1 [compound 648, 4-[5-(aminomethyl)pyrimidin-2-yl]-3-[2-methyl-6-(oxan-4-ylamino)pyridin-4-yl]oxybenzonitrile] | > 1
8 | Cn1nc(-c2ncccc2F)cc1Oc1cc(C#N)ccc1-c1ncc(CN)cn1 [compound 649, 4-[5-(aminomethyl)pyrimidin-2-yl]-3-[5-(3-fluoropyridin-2-yl)-2-methylpyrazol-3-yl]oxybenzonitrile] | 0.01 to 1
9 | Cn1nc(-c2ccc(F)cn2)cc1Oc1cc(C#N)ccc1-c1ncc(CN)cn1 [compound 651, 4-[5-(aminomethyl)pyrimidin-2-yl]-3-[5-(5-fluoropyridin-2-yl)-2-methylpyrazol-3-yl]oxybenzonitrile] | < 0.01
10 | Cc1ccnc(-c2cc(Oc3cc(C#N)ccc3-c3ncc(CN)cn3)n(C)n2)c1 [compound 652, 4-[5-(aminomethyl)pyrimidin-2-yl]-3-[2-methyl-5-(4-methylpyridin-2-yl)pyrazol-3-yl]oxybenzonitrile] | < 0.01
11 | Cc1nc(Oc2cc(C#N)ccc2-c2ncc(CN)cn2)cc(N2CC(F)(F)C2)n1 [compound 653, 4-[5-(aminomethyl)pyrimidin-2-yl]-3-[6-(3,3-difluoroazetidin-1-yl)-2-methylpyrimidin-4-yl]oxybenzonitrile] | 0.01 to 1
12 | CCN(CC)c1cc(Oc2cc(C#N)ccc2-c2ncc(CCN)cn2)n(C)n1 [compound 656, 4-[5-(2-aminoethyl)pyrimidin-2-yl]-3-[5-(diethylamino)-2-methylpyrazol-3-yl]oxybenzonitrile] | < 0.01
13 | Cc1nc(Oc2cc(C#N)ccc2-c2ncc(CN)cn2)cc(N2CCCC2)n1 [compound 658, 4-[5-(aminomethyl)pyrimidin-2-yl]-3-(2-methyl-6-pyrrolidin-1-ylpyrimidin-4-yl)oxybenzonitrile] | 0.01 to 1
14 | Cn1nc(-c2ccccn2)cc1Oc1cc(C#N)ccc1-c1ncc(CNC2CC2)cn1 [compound 662, 4-[5-[(cyclopropylamino)methyl]pyrimidin-2-yl]-3-(2-methyl-5-pyridin-2-ylpyrazol-3-yl)oxybenzonitrile] | 0.01 to 1
15 | CC(C)NCc1cnc(-c2ccc(C#N)cc2Oc2cc(-c3ccccn3)nn2C)nc1 [compound 663, 3-(2-methyl-5-pyridin-2-ylpyrazol-3-yl)oxy-4-[5-[(propan-2-ylamino)methyl]pyrimidin-2-yl]benzonitrile] | 0.01 to 1
16 | Cn1nc(-c2ccccn2)cc1Oc1cc(C#N)ccc1-c1ncc(CNC(C)(C)C)cn1 [compound 664, 4-[5-[(tert-butylamino)methyl]pyrimidin-2-yl]-3-(2-methyl-5-pyridin-2-ylpyrazol-3-yl)oxybenzonitrile] | 0.01 to 1

Results, then the compound that gave them:

Row | IC50 [µM] | Structure (SMILES)
17 | < 0.01 | Cc1nc(NCC(C)C)cc(Oc2cc(C#N)ccc2-c2ncc(CN)cn2)n1 [compound 634, 4-[5-(aminomethyl)pyrimidin-2-yl]-3-[2-methyl-6-(2-methylpropylamino)pyrimidin-4-yl]oxybenzonitrile]
18 | > 1 | Cc1nc(NC2CCOCC2)cc(Oc2cc(C#N)ccc2-c2ncc(CN)cn2)n1 [compound 635, 4-[5-(aminomethyl)pyrimidin-2-yl]-3-[2-methyl-6-(oxan-4 ylamino)pyrimidin-4-yl]oxybenzonitrile]
19 | > 1 | Cc1nc(NCC2CCOCC2)cc(Oc2cc(C#N)ccc2-c2ncc(CN)cn2)n1 [compound 636, 4-[5-(aminomethyl)pyrimidin-2-yl]-3-[2-methyl-6-(oxan-4-ylmethylamino)pyrimidin-4-yl]oxybenzonitrile]
20 | 0.01 to 1 | Cc1cc(Oc2cc(C#N)ccc2-c2cc(CCN)ccn2)cc(N2CCOCC2)n1 [compound 638, 4-[4-(2-aminoethyl)pyridin-2-yl]-3-(2-methyl-6-morpholin-4-ylpyridin-4-yl)oxybenzonitrile]
21 | > 1 | COCCNc1cc(Oc2cc(C#N)ccc2-c2ncc(CN)cn2)nc(C)n1 [compound 639, 4-[5-(aminomethyl)pyrimidin-2-yl]-3-[6-(2-methoxyethylamino)-2-methylpyrimidin-4-yl]oxybenzonitrile]
22 | 0.01 to 1 | Cc1nc(NCC(F)(F)F)cc(Oc2cc(C#N)ccc2-c2ncc(CN)cn2)n1 [compound 640, 4-[5-(aminomethyl)pyrimidin-2-yl]-3-[2-methyl-6-(2,2,2-trifluoroethylamino)pyrimidin-4-yl]oxybenzonitrile]
23 | 0.01 to 1 | Cn1nc(C2CC2)cc1Oc1cc(C#N)ccc1-c1ccc(CN)n2cnnc12 [compound 641, 4-[5-(aminomethyl)-[1,2,4]triazolo[4,3-a]pyridin-8-yl]-3-(5-cyclopropyl-2-methylpyrazol-3-yl)oxybenzonitrile]
24 | 0.01 to 1 | Cc1cc(Oc2cc(C#N)ccc2-c2ncc(CN)cn2)cc(NC2CC2)n1 [compound 646, 4-[5-(aminomethyl)pyrimidin-2-yl]-3-[2-(cyclopropylamino)-6-methylpyridin-4-yl]oxybenzonitrile]
25 | 0.01 to 1 | Cc1cccc(-c2cc(Oc3cc(C#N)ccc3-c3ncc(CN)cn3)n(C)n2)n1 [compound 650, 4-[5-(aminomethyl)pyrimidin-2-yl]-3-[2-methyl-5-(6-methylpyridin-2-yl)pyrazol-3-yl]oxybenzonitrile]
26 | > 1 | Cc1nc(Oc2cc(C#N)ccc2-c2ccc(CCN)cn2)cc(N2CCN(S(C)(=O)=O)CC2)n1 [compound 654, 4-[5-(2-aminoethyl)pyridin-2-yl]-3-[2-methyl-6-(4-methylsulfonylpiperazin-1-yl)pyrimidin-4-yl]oxybenzonitrile]
27 | < 0.01 | CCN(CC)c1cc(Oc2cc(C#N)ccc2-c2ncc(CN)cn2)n(C)n1 [compound 655, 4-[5-(aminomethyl)pyrimidin-2-yl]-3-[5-(diethylamino)-2-methylpyrazol-3-yl]oxybenzonitrile]
28 | < 0.01 | Cc1nc(Oc2cc(C#N)ccc2-c2ccc(CN)cn2)cc(N2CCCC2)n1 [compound 657, 4-[5-(aminomethyl)pyridin-2-yl]-3-(2-methyl-6-pyrrolidin-1-ylpyrimidin-4-yl)oxybenzonitrile]
29 | 0.01 to 1 | Cc1nc(Oc2cc(C#N)ccc2-c2ccc(CN)cn2)cc(N(C)C)n1 [compound 659, 4-[5-(aminomethyl)pyridin-2-yl]-3-[6-(dimethylamino)-2-methylpyrimidin-4-yl]oxybenzonitrile]
30 | > 1 | Cc1nc(Oc2cc(C#N)ccc2-c2ncc(CN)cn2)cc(N(C)C)n1 [compound 660, 4-[5-(aminomethyl)pyrimidin-2-yl]-3-[6-(dimethylamino)-2-methylpyrimidin-4-yl]oxybenzonitrile]
31 | > 1 | Cc1cc(Oc2cc(C#N)ccc2-c2ncc(CNC(C)(C)C)cn2)cc(N2CCOCC2)n1 [compound 661, 4-[5-[(tert-butylamino)methyl]pyrimidin-2-yl]-3-(2-methyl-6-morpholin-4-ylpyridin-4-yl)oxybenzonitrile]
